Entries after “also recorded” stand apart in the source; their conditions may differ.
Experiments:
[1] = Solubility of testosterone in water, solvents, oils and vehicles
pKa of testosterone = conditions: deduced from the molecular structure

C[C@]12CC[C@H]3[C@@H](CCC4=CC(=O)CC[C@@]43C)[C@@H]1CC[C@@H]2O [Testosterone, 17ß-Hydroxyandrost-4-en-3-one]
Solubility in oils ([1]; castor oil): up to 4% | Solubility in castor oil ([1]; castor oil pure, maximum): 3.6% | Solubility in castor oil ([1]; castor oil with 4% Labrafil): ~3.36% | Solubility in oils ([1]; corn oil): 0.5% | Solubility in oils ([1]; cottonseed oil): 0.7% | Solubility in oils ([1]; isopropylmyristate): 0.8% | Solubility in oils ([1]; peanut oil): 0.5% | Solubility (descriptive) ([1]; solvent named in the value): freely soluble in methanol and ethanol; also recorded: soluble in acetone and isopropanol; also recorded: insoluble in n-heptane | Solubility in oils ([1]; soybean oil): 0.6% | Solubility in castor oil ([1]; with fumed silica (Aerosil, CabOsil) and 4.0% Labrafil): up to 4.5% | pKa (pKa of testosterone): no pKa value in the range 1-14

From patent US20250009756A1 (Acerus Biopharma Inc., priority 2012, published 2025)
